The test system of test [1] is uterus of ovariectomized mice. Put plainly: Mouse uterine estrogenicity: uterine wet weight. The test is classed as in vivo. The settings on record: dose of 10 ng; subcutaneous; 18 h.
The subject of test [2] is ERβ-GFP.
In test [3] the test system is ERβ-GFP. The settings on record: COS7 cells; 1 nM E2 or 1 μM AB-1.
For test [4], the system named is ERβ-GFP. The settings on record: COS7 cells; 1 nM E2 or 1 μM AB-1; 15 min.
The test system of test [5] is FOXO3a-GFP. Put plainly: FOXO3a translocation in MCF-7 cells. The settings on record: E2 10 nM, G-1 100 nM, AB-1 1 μM, EGF 50 ng/mL.
The test system of test [6] is GPER over ERα. The settings on record: ref Dennis et al., 2011; cited from earlier work.
The target in test [7] is T1, ERα (Homo sapiens, UniProt P03372).
T1 sequence (P03372 1-595): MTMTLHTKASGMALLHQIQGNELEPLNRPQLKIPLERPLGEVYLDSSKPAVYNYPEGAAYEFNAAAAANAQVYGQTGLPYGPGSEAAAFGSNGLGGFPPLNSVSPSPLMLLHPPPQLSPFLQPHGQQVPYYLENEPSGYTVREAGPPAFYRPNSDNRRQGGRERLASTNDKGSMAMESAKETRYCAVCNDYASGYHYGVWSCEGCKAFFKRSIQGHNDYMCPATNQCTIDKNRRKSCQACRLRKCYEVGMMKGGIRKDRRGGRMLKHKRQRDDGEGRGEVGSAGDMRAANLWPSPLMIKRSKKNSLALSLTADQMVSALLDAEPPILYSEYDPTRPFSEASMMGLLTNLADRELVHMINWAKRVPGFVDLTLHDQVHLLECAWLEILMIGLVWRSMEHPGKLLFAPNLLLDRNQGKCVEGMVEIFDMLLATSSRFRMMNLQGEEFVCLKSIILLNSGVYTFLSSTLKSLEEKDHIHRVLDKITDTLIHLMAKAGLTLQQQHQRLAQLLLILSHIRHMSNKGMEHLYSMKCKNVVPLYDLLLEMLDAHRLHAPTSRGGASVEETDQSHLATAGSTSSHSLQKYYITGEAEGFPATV
The settings on record: MCF-7 cells; 24 h; Western blot.

Test [8] has as its system ERα over ERβ. The settings on record: ref Stauffer et al., 2000; cited from earlier work.

For the molecule `C[C@]12CC[C@@H]3c4ccc(O)cc4CC[C@H]3[C@@H]1CC[C@@H]2O` [E2, 17β-estradiol], in test [1], the Imbibition response result was “strong imbibition response”. The “Block of E2-Alexa633 binding to ERβ-GFP (confocal)” value in test [2] was “blocked binding of E2-Alexa633”. Further, the “Induction of calcium mobilization, ERβ” value in test [3] is recorded as “induced rapid calcium mobilization”. In test [4], the “PI3K activation (nuclear translocation of PH-mRFP1), ERβ” value is “induced strong nuclear localization of the PH-mRFP1 reporter”. The “FOXO3a translocation from nucleus to cytoplasm” value (“FOXO3a translocation” below) in test [5] is “stimulated cytosolic translocation”.

On to `CC(=O)c1ccc2c(c1)[C@@H]1C=CC[C@@H]1[C@H](c1cc3c(cc1Br)OCO3)N2` [G-1], for which, in test [5], the “FOXO3a translocation” value is recorded as “stimulated cytosolic translocation”. Moreover, the “Selectivity for GPER over ERα” value in test [6] is > 10^5 fold.

Regarding `C[C@]12CC[C@@H]3c4ccc(O)cc4C[C@@H](CCCCCCCCC[S+]([O-])CCCC(F)(F)C(F)(F)F)[C@H]3[C@@H]1CC[C@@H]2O` (stereo partly shown) [ICI182,780], the “Effect on ERα levels” value in test [7] is given as “potently decreased”.

Regarding `CCCc1c(-c2ccc(O)cc2)nn(-c2ccc(O)cc2)c1-c1ccc(O)cc1` [PPT], in test [8], the “Selectivity for ERα over ERβ” value is “about 400 fold”.

Consider “EGF: growth factor that stimulates the PI3K pathway (NSDSECPLSHDGYCLHDGVCMYIEALDKYACNCVVGYIGERCQYRDLKWWELR; UniProt P01133 971-1023, looked up)”, for which, in test [5], the “FOXO3a translocation” value was “translocated from the nucleus to the cytoplasm”.
